The values below come from paper PMC5681660, “Reduced hepatitis B and D viral entry using clinically applied drugs as novel inhibitors of the bile acid transporter NTCP” (Scientific Reports, 2017).

The target of the experiment is T1, human NTCP (Homo sapiens, UniProt Q14973).
T1 sequence (Q14973 1-349): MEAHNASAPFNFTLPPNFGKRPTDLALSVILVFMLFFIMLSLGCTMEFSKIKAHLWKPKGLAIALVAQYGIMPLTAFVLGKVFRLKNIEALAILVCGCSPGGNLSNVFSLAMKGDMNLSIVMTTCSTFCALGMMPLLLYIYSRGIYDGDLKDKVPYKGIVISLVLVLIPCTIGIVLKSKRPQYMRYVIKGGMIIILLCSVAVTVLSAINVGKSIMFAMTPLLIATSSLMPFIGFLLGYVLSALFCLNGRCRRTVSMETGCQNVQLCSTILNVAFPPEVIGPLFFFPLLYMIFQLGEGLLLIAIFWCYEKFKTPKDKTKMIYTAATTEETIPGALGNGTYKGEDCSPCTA
Put plainly: Screening taurocholate uptake assay (96-well, [14C]taurocholate, 10 µM drug). To be noted: for B-score functional assay: 10 µM drug.

The mark [1] stands for this setting: ranking over the functional and the binding screening assay.
Setting [2] is: combined ranking of functional and binding screening assays.
[3] abbreviates: screening taurocholate uptake, B-score.

Counter-ions that a name gives are not always drawn.

As to `COc1ccc(C(CN(C)C)C2(O)CCCCC2)cc1` (stereo not shown) [Venlafaxine], the Ranking score (combined ranking from functional and binding screening assays) is 459.852. The B-score functional assay (screen, taurocholate uptake) is -0.102.

`O=C(C1CCCCC1)N1CC(=O)N2CCc3ccccc3C2C1` (stereo not shown) [Praziquantel] returned a Ranking score under setting [1] of 262.237. Under “screening taurocholate uptake”, this compound had a B-score functional assay of -0.749.

On to `NC(CO)C(=O)NNCc1ccc(O)c(O)c1O` (stereo not shown) [Benserazide hydrochloride], for which the Ranking score under setting [2] is given as 520.826. The compound further had a B-score functional assay (screening taurocholate uptake) of -0.402.

Under setting [1], `COC(=O)Nc1nc2ccc(SC(C)C)cc2[nH]1` [Methiazole] gave a Ranking score of 275.739. This compound also yielded a B-score functional assay (screening taurocholate uptake) of -0.825.

Take `Nc1nc(Cl)nc2c1ncn2[C@H]1C[C@H](O)[C@@H](CO)O1` [Cladribine]: the Ranking score under setting [1] was determined as 277.042. Moreover, the B-score functional assay (screening taurocholate uptake) is -0.011.

In the case of `Nc1ccc(S(=O)(=O)NC(=O)c2ccccc2)cc1` [Sulfabenzamide], the Ranking score under setting [2] was found to be 563.848. Further, the B-score functional assay (screening taurocholate uptake) turned out to be 0.164.

`CC/C(=C(/CC)c1ccc(O)cc1)c1ccc(O)cc1` [Diethylstilbestrol]: under setting [1], the Ranking score is 262.907. This compound also returned a B-score functional assay (screening taurocholate uptake) of -0.349.

Regarding `CC(=O)[N-]S(=O)(=O)c1ccc(N)cc1.O.[Na+]` [Sulfacetamide sodic hydrate], the Ranking score under setting [1] was found to be 277.153. Moreover, where the note is “screening taurocholate uptake”, the B-score functional assay is on record as -0.444.

Compound `CC[C@H](C)[C@H]1O[C@]2(CC[C@@H]1C)C[C@@H]1C[C@@H](C/C=C(\C)[C@@H](O[C@H]3C[C@H](OC)[C@@H](O[C@H]4C[C@H](OC)[C@@H](O)[C@H](C)O4)[C@H](C)O3)[C@@H](C)/C=C/C=C3\CO[C@@H]4[C@H](O)C(C)=C[C@@H](C(=O)O1)[C@]34O)O2` [Ivermectin] yielded a Ranking score under setting [1] of 56.4978. For the setting “screening taurocholate uptake”, this compound returned a B-score functional assay of -2.693.

In the case of `C=C1C[C@@H]2[C@H](CC[C@]3(C)C(=O)CC[C@@H]23)[C@@]2(C)C=CC(=O)C=C12` [Exemestane], the Ranking score under setting [2] was 568.146. Further, the B-score functional assay (screening taurocholate uptake) is reported as -0.634.

The compound `CC1(C)S[C@@H]2[C@H](NC(=O)[C@H](N)c3ccc(O)cc3)C(=O)N2[C@H]1C(=O)O` [Amoxicillin] displayed a Ranking score under setting [1] of 277.274. The compound further showed a B-score functional assay (screening taurocholate uptake) of -0.114.

Take `C=C1c2c(Cl)ccc(O)c2C(=O)C2=C(O)[C@]3(O)C(=O)C(C(N)=O)=C(O)[C@@H](N(C)C)[C@@H]3[C@@H](O)[C@H]12.O=C(O)c1cc(S(=O)(=O)O)ccc1O` [Meclocycline sulfosalicylate]: the Ranking score under setting [2] was determined as 647.296. This compound displayed a B-score functional assay (screening taurocholate uptake) of 0.486.

Consider `C[C@@H]1O[C@@H](O[C@@H]2C=C3CC[C@@H]4[C@H](CC[C@]5(C)[C@@H](c6ccc(=O)oc6)CC[C@]45O)[C@@]3(C)CC2)[C@H](O)[C@H](O)[C@H]1O` [Proscillaridin A], for which the Ranking score under setting [1] was 183.761. In addition, the B-score functional assay (screening taurocholate uptake) was -2.06.

Take `CNC(=O)Oc1ccc2c(c1)[C@]1(C)CCN(C)[C@@H]1N2C` [Eserine hemisulfate salt]: under setting [1], the Ranking score came out at 269.255. The compound further returned a B-score functional assay (screening taurocholate uptake) of -0.074.

Take `CCCCC(CC)CN1CN(CC(CC)CCCC)CC(C)(N)C1` (stereo not shown) [Hexetidine]: the Ranking score under setting [2] turned out to be 491.543. The same compound returned a B-score functional assay (screening taurocholate uptake) of 3.961.

For “R(-) Apomorphine hydrochloride hemihydrate”, the Ranking score under setting [2] was found to be 1173.62. Also, under setting [3], the B-score functional assay came out at 2.876.

Consider `N#Cc1ccc(C(c2ccc(C#N)cc2)n2cncn2)cc1` [Letrozole], for which the Ranking score under setting [2] is given as 610.1. In addition, under “screening taurocholate uptake”, the B-score functional assay is listed as 1.169.

Turning to `CC(=O)c1ccc2c(c1)N(CCCN1CCC(CCO)CC1)c1ccccc1S2` [Piperacetazine], under setting [2], the Ranking score is on record as 531.5. Further, the B-score functional assay (screening taurocholate uptake) is -0.935.

For the compound `CC(C)NCC(O)COc1ccc(CCOCC2CC2)cc1` (stereo not shown) [Betaxolol hydrochloride], the Ranking score under setting [2] came to 583.493. Besides, the B-score functional assay (screening taurocholate uptake) is 0.038.

The compound `Cc1cccc(C)c1NC(=O)C1CCCCN1C` (stereo not shown) [Mepivacaine hydrochloride] had a Ranking score under setting [1] of 206.427. In addition, the B-score functional assay (screening taurocholate uptake) was -0.918.

Turning to `C=C1/C(=C\C=C2/CCC[C@]3(C)[C@@H]([C@H](C)/C=C/[C@@H](O)C4CC4)CC[C@@H]23)C[C@@H](O)C[C@@H]1O` [Calcipotriene], the Ranking score under setting [1] was 164.682. This compound also yielded a B-score functional assay (screening taurocholate uptake) of -4.364.

Consider `COc1ccccc1OCC(O)CO` (stereo not shown) [Guaifenesin], for which, under setting [2], the Ranking score is recorded as 466.326. The compound also had a B-score functional assay (screening taurocholate uptake) of 0.275.

Regarding `C[C@@H]1C[C@H]2[C@@H]3CCC4=CC(=O)C=C[C@]4(C)[C@@]3(Cl)[C@@H](O)C[C@]2(C)[C@@]1(OC(=O)c1ccco1)C(=O)CCl` [Mometasone furoate], the Ranking score under setting [1] was 101.489. Where the note is “screening taurocholate uptake”, the B-score functional assay was -0.4.

As for `N#Cc1cc(NC(=O)C(=O)O)c(Cl)c(NC(=O)C(=O)O)c1` [Lodoxamide], the Ranking score under setting [2] is listed as 609.015. Also, for the setting “screening taurocholate uptake”, the B-score functional assay is -0.138.

For the compound `Cc1cccn2c(=O)c(-c3nnn[nH]3)cnc12` [Pemirolast potassium], under setting [2], the Ranking score worked out at 607.829. The B-score functional assay (screening taurocholate uptake) is on record as 0.868.

Turning to `NS(=O)(=O)c1cc(C(=O)O)cc(N2CCCC2)c1Oc1ccccc1` [Piretanide], the Ranking score under setting [2] was found to be 548.109. This compound yielded a B-score functional assay (screening taurocholate uptake) of -0.384.

Consider `CNCC(O)c1ccc(O)cc1` (racemic) [(+,-)-Synephrine], for which the Ranking score under setting [2] is listed as 485.351. The same compound displayed a B-score functional assay (screening taurocholate uptake) of -0.397.

As to `CCCCC(CC)CNC(=N)NC(=N)NCCCCCCNC(=N)NC(=N)NCC(CC)CCCC` (stereo not shown) [Alexidine dihydrochloride], the Ranking score under setting [1] came out at 6.481. The compound also showed a B-score functional assay (screening taurocholate uptake) of -9.197.

Turning to `Clc1ccc(Nc2nnc(Cc3ccncc3)c3ccccc23)cc1` [Vatalanib], under setting [1], the Ranking score turned out to be 181.191. This compound yielded a B-score functional assay (screening taurocholate uptake) of -2.979.

For the compound `C=CCc1ccccc1OCC(O)CNC(C)C` (stereo not shown) [Alprenolol hydrochloride], the Ranking score under setting [2] is recorded as 1166.46. The B-score functional assay under setting [3] was 2.549.

In turn, `O=C(O)CCCc1ccc(N(CCCl)CCCl)cc1` [Chlorambucil] yielded a Ranking score under setting [1] of 169.183. Besides, the B-score functional assay (screening taurocholate uptake) is given as -1.869.

With `CN1CC2c3ccccc3Oc3ccc(Cl)cc3C2C1` (stereo not shown) [Asenapine maleate], the Ranking score under setting [1] turned out to be 127.491. Also, for the setting “screening taurocholate uptake”, the B-score functional assay is recorded as -0.488.

`c1ccc2c(c1)OCC(C1=NCCN1)O2` (stereo not shown) [Idazoxan hydrochloride] gave a Ranking score under setting [1] of 198.728. This compound showed a B-score functional assay (screening taurocholate uptake) of -2.926.

For the compound `CN1CCCN=C1/C=C/c1cccs1.O=C(O)C(O)C(O)C(=O)O` [Pyrantel tartrate], the Ranking score under setting [2] amounted to 600.829. In addition, the B-score functional assay (screening taurocholate uptake) is given as -0.111.

Regarding `Cc1ccc(S(=O)(=O)NC(=O)NN2CC3CCCC3C2)cc1` (stereo not shown) [Gliclazide], under setting [1], the Ranking score is listed as 246.057. Moreover, the B-score functional assay (screening taurocholate uptake) is -0.222.

`CCC1(C)CC(=O)NC(=O)C1` [Bemegride] gave a Ranking score under setting [1] of 76.1315. The B-score functional assay (screening taurocholate uptake) is -2.979.

On to `NNc1nncc2ccccc12` [Hydralazine hydrochloride], for which the Ranking score under setting [2] turned out to be 587.239. The compound also yielded a B-score functional assay (screening taurocholate uptake) of -0.84.

`CC1CCc2c(N3CCC(O)CC3)c(F)cc3c(=O)c(C(=O)O)cn1c23` (stereo not shown) [Nadifloxacin]: the Ranking score under setting [2] is 1251.94. The compound also yielded a B-score functional assay under setting [3] of 3.94.

Turning to `CC(CCc1ccccc1)NCC(O)c1ccc(O)c(C(N)=O)c1` (stereo not shown) [Labetalol hydrochloride], the Ranking score under setting [2] was found to be 596.712. Further, the B-score functional assay (screening taurocholate uptake) stood at 2.094.

Take `COc1cc([C@@H]2c3cc4c(cc3[C@H](O)[C@H]3COC(=O)[C@H]23)OCO4)cc(OC)c1OC` [Podophyllotoxin]: the Ranking score under setting [2] is on record as 1193.91. The same compound registered a B-score functional assay under setting [3] of 1.781.

With `C[C@]12C/C(=C/O)C(=O)C[C@@H]1CC[C@@H]1[C@@H]2CC[C@@]2(C)[C@H]1CC[C@]2(C)O` [Oxymetholone], the Ranking score under setting [2] is reported as 467.145. In addition, the B-score functional assay (screening taurocholate uptake) was -1.45.

Under setting [1], `CN1CCN(CCCN2c3ccccc3Sc3ccc(Cl)cc32)CC1` [Prochlorperazine dimaleate] yielded a Ranking score of 89.1291. For the same compound, under “screening taurocholate uptake”, the B-score functional assay is given as -4.76.

For the compound `COc1ccc2c(c1)c(CC(=O)O)c(C)n2C(=O)c1ccc(Cl)cc1` [Indomethacin], the Ranking score under setting [1] was 264.174. In addition, where the note is “screening taurocholate uptake”, the B-score functional assay is -1.11.

`COC(=O)[C@@H]1[C@H]2C[C@H]3c4[nH]c5ccccc5c4CCN3C[C@@H]2CC[C@@H]1O` [Yohimbine hydrochloride] came in with a Ranking score under setting [1] of 229.785. For the same compound, the B-score functional assay (screening taurocholate uptake) is listed as -1.965.

With `C/C(=C(\CCOP(=O)(O)O)SC(=O)c1ccccc1)N(C=O)Cc1cnc(C)nc1N` [Benfotiamine], under setting [2], the Ranking score was determined as 532.072. The B-score functional assay (screening taurocholate uptake) was -0.56.

Regarding `CC(NC(C)(C)C)C(=O)c1cccc(Cl)c1` (stereo not shown) [Bupropion hydrochloride], the Ranking score under setting [2] amounted to 557.749. Besides, for the setting “screening taurocholate uptake”, the B-score functional assay turned out to be 0.583.

The compound `Cc1c(O)cccc1C(=O)N[C@@H](CSc1ccccc1)[C@H](O)CN1C[C@H]2CCCC[C@H]2C[C@H]1C(=O)NC(C)(C)C` [Nelfinavir mesylate] registered a Ranking score under setting [1] of 28.9828. Also, the B-score functional assay (screening taurocholate uptake) is listed as -3.419.
